Test results from US12679843B2, “Pyrrolopyrimidine amines as complement inhibitors” (BioCryst Pharmaceuticals, Inc., priority 2020, dated 2026).

target: Factor D (Homo sapiens, UniProt P00746); assay: Factor D esterolytic assay (Z-Lys-SBzl thioester substrate, DTNB, 405 nm); format: biochemical; settings: substrate Z-Lys-SBzl 1.29 mM, 100 mM HEPES, 500 mM NaCl, pH 7.5, 10% DMSO, tested a minimum of three times
Method in brief: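 Human Factor D hydrolysis of Z-Lys-SBzl (1.29 mM) monitored at 405 nm via DTNB thiol detection for 600 s, 690 nm background subtracted. Buffer 100 mM HEPES, 500 mM NaCl, pH 7.5, 10% DMSO; substrate added immediately or after room-temperature preincubation. IC50 from percent inhibition of rate, at least three tests.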

Factor D, sequence (P00746 26-253): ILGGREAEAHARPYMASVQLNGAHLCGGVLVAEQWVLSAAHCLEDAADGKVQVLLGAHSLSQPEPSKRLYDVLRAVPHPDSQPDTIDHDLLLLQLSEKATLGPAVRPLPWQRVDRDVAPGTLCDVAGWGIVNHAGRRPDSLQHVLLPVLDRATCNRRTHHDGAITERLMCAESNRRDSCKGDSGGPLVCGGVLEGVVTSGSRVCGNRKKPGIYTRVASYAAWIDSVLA

Structure (SMILES)	IC50
COCc1ccc2c(c1)c1c(N)ncnc1n2CC(=O)N1[C@H](C(=O)Nc2cccc(Br)n2)C[C@@]2(C)C[C@@H]12 [Compound 340a, (1R,3S,5R)-2-(2-(4-amino-6-(methoxymethyl)-9H-pyrimido[4,5-b]indol-9-yl)acetyl)-N-(6-bromopyridin-2-yl)-5-methyl-2-azabicyclo[3.1.0]hexane-3-carboxamide]	< 100 nM
COc1cccc(-c2cc(C)c3c(c2)c2c(N)ncnc2n3CC(=O)N2[C@@H]3C[C@@H]3C[C@H]2C(=O)Nc2cccc(Br)n2)c1 [Compound 341c, (1R,3S,5R)-2-(2-(4-amino-6-(3-methoxyphenyl)-8-methyl-9H-pyrimido[4,5-b]indol-9-yl)acetyl)-N-(6-bromopyridin-2-yl)-2-azabicyclo[3.1.0]hexane-3-carboxamide]	< 100 nM
COc1cccc(-c2cc(C)c3c(c2)c2c(N)ncnc2n3CC(=O)N2[C@H](C(=O)Nc3cccc(Br)n3)C[C@@]3(C)C[C@@H]23)c1 [Compound 342a, (1R,3S,5R)-2-(2-(4-amino-6-(3-methoxyphenyl)-8-methyl-9H-pyrimido[4,5-b]indol-9-yl)acetyl)-N-(6-bromopyridin-2-yl)-5-methyl-2-azabicyclo[3.1.0]hexane-3-carboxamide]	< 100 nM
Cc1ncc(-c2cc(C)c3c(c2)c2c(N)ncnc2n3CC(=O)N2C[C@](C)(F)C[C@H]2C(=O)Nc2cccc(Cl)n2)cn1 [Compound 343a, (2S,4R)-1-(2-(4-amino-8-methyl-6-(2-methylpyrimidin-5-yl)-9H-pyrimido[4,5-b]indol-9-yl)acetyl)-N-(6-chloropyridin-2-yl)-4-fluoro-4-methylpyrrolidine-2-carboxamide]	< 100 nM
COc1cc(Br)nc(NC(=O)[C@@H]2C[C@H]3C[C@H]3N2C(=O)Cn2c3ncnc(N)c3c3cc(C(F)(F)F)cc(C)c32)c1 [Compound 344c, (1R,3S,5R)-2-(2-(4-amino-8-methyl-6-(trifluoromethyl)-9H-pyrimido[4,5-b]indol-9-yl)acetyl)-N-(6-bromo-4-methoxypyridin-2-yl)-2-azabicyclo[3.1.0]hexane-3-carboxamide]	< 100 nM
Cc1cc(C(F)(F)F)cc2c3c(N)ncnc3n(CC(=O)N3[C@@H]4C[C@@H]4C[C@H]3C(=O)Nc3cccc(OC(F)F)n3)c12 [Compound 345c, (1R,3S,5R)-2-(2-(4-amino-8-methyl-6-(trifluoromethyl)-9H-pyrimido[4,5-b]indol-9-yl)acetyl)-N-(6-(difluoromethoxy)pyridin-2-yl)-2-azabicyclo[3.1.0]hexane-3-carboxamide]	< 100 nM
Cc1nc(C(F)(F)F)cc2c3c(N)ncnc3n(CC(=O)N3[C@@H]4C[C@@H]4C[C@H]3C(=O)Nc3cccc(Br)n3)c12 [Compound 346g, (1R,3S,5R)-2-(2-(4-amino-8-methyl-6-(trifluoromethyl)-9H-pyrido[4′,3′:4,5]pyrrolo[2,3-d]pyrimidin-9-yl)acetyl)-N-(6-bromopyridin-2-yl)-2-azabicyclo[3.1.0]hexane-3-carboxamide]	< 100 nM
Cc1nc(C(F)(F)F)cc2c3c(N)ncnc3n(CC(=O)N3[C@H](C(=O)Nc4cccc(Br)n4)C[C@@]4(C)C[C@@H]34)c12 [Compound 347a, (1R,3S,5R)-2-(2-(4-amino-8-methyl-6-(trifluoromethyl)-9H-pyrido[4′,3′:4,5]pyrrolo[2,3-d]pyrimidin-9-yl)acetyl)-N-(6-bromopyridin-2-yl)-5-methyl-2-azabicyclo[3.1.0]hexane-3-carboxamide]	< 100 nM
Cc1cc(C(F)(F)F)cc2c3c(N)ncnc3n(CC(=O)N3[C@@H]4C[C@@H]4C[C@H]3C(=O)Nc3cncc(C(F)(F)F)n3)c12 [Compound 348c, (1R,3S,5R)-2-(2-(4-amino-8-methyl-6-(trifluoromethyl)-9H-pyrimido[4,5-b]indol-9-yl)acetyl)-N-(6-(trifluoromethyl)pyrazin-2-yl)-2-azabicyclo[3.1.0]hexane-3-carboxamide]	< 100 nM
Cc1cc(C(F)(F)F)cc2c3c(N)ncnc3n(CC(=O)N3[C@@H]4C[C@@H]4C[C@H]3C(=O)Nc3cccc(C(F)(F)F)n3)c12 [Compound 349c, (1R,3S,5R)-2-(2-(4-amino-8-methyl-6-(trifluoromethyl)-9H-pyrimido[4,5-b]indol-9-yl)acetyl)-N-(6-(trifluoromethyl)pyridin-2-yl)-2-azabicyclo[3.1.0]hexane-3-carboxamide]	< 100 nM
Cc1nc(C(F)(F)F)cc2c3c(N)ncnc3n(CC(=O)N3[C@H](C(=O)Nc4cncc(Br)n4)C[C@@]4(C)C[C@@H]34)c12 [Compound 350a, (1R,3S,5R)-2-(2-(4-amino-8-methyl-6-(trifluoromethyl)-9H-pyrido[4′,3′:4,5]pyrrolo[2,3-d]pyrimidin-9-yl)acetyl)-N-(6-bromopyrazin-2-yl)-5-methyl-2-azabicyclo[3.1.0]hexane-3-carboxamide]	< 100 nM
Cc1nc(C(F)(F)F)cc2c3c(N)ncnc3n(CC(=O)N3[C@H](C(=O)Nc4cccc(Cl)n4)C[C@@]4(C)C[C@@H]34)c12 [Compound 351a, (1R,3S,5R)-2-(2-(4-amino-8-methyl-6-(trifluoromethyl)-9H-pyrido[4′,3′:4,5]pyrrolo[2,3-d]pyrimidin-9-yl)acetyl)-N-(6-chloropyridin-2-yl)-5-methyl-2-azabicyclo[3.1.0]hexane-3-carboxamide]	< 100 nM
Cc1cc(-c2ccoc2)cc2c3c(N)ncnc3n(CC(=O)N3[C@@H]4C[C@@H]4C[C@H]3C(=O)Nc3cccc(Br)n3)c12 [Compound 352c, (1R,3S,5R)-2-(2-(4-amino-6-(furan-3-yl)-8-methyl-9H-pyrimido[4,5-b]indol-9-yl)acetyl)-N-(6-bromopyridin-2-yl)-2-azabicyclo[3.1.0]hexane-3-carboxamide]	< 100 nM
Cc1cc(-c2ccoc2)cc2c3c(N)ncnc3n(CC(=O)N3[C@H](C(=O)Nc4cccc(Br)n4)C[C@@]4(C)C[C@@H]34)c12 [Compound 353a, (1R,3S,5R)-2-(2-(4-amino-6-(furan-3-yl)-8-methyl-9H-pyrimido[4,5-b]indol-9-yl)acetyl)-N-(6-bromopyridin-2-yl)-5-methyl-2-azabicyclo[3.1.0]hexane-3-carboxamide]	< 100 nM
Cc1cc(-c2ccnc(C(F)(F)F)c2)cc2c3c(N)ncnc3n(CC(=O)N3[C@@H]4C[C@@H]4C[C@H]3C(=O)Nc3cccc(Br)n3)c12 [Compound 354c, (1R,3S,5R)-2-(2-(4-amino-8-methyl-6-(2-(trifluoromethyl)pyridin-4-yl)-9H-pyrimido[4,5-b]indol-9-yl)acetyl)-N-(6-bromopyridin-2-yl)-2-azabicyclo[3.1.0]hexane-3-carboxamide]	< 100 nM
Cc1cc(-c2ccnc(C(F)(F)F)c2)cc2c3c(N)ncnc3n(CC(=O)N3[C@H](C(=O)Nc4cccc(Br)n4)C[C@@]4(C)C[C@@H]34)c12 [Compound 355a, (1R,3S,5R)-2-(2-(4-amino-8-methyl-6-(2-(trifluoromethyl)pyridin-4-yl)-9H-pyrimido[4,5-b]indol-9-yl)acetyl)-N-(6-bromopyridin-2-yl)-5-methyl-2-azabicyclo[3.1.0]hexane-3-carboxamide]	< 100 nM
Cc1cc(-c2ccc(C(F)(F)F)nc2)cc2c3c(N)ncnc3n(CC(=O)N3[C@@H]4C[C@@H]4C[C@H]3C(=O)Nc3cccc(Br)n3)c12 [Compound 356c, (1R,3S,5R)-2-(2-(4-amino-8-methyl-6-(6-(trifluoromethyl)pyridin-3-yl)-9H-pyrimido[4,5-b]indol-9-yl)acetyl)-N-(6-bromopyridin-2-yl)-2-azabicyclo[3.1.0]hexane-3-carboxamide]	< 100 nM
Cc1cc(-c2ccc(C(F)(F)F)nc2)cc2c3c(N)ncnc3n(CC(=O)N3[C@H](C(=O)Nc4cccc(Br)n4)C[C@@]4(C)C[C@@H]34)c12 [Compound 357a, (1R,3S,5R)-2-(2-(4-amino-8-methyl-6-(6-(trifluoromethyl)pyridin-3-yl)-9H-pyrimido[4,5-b]indol-9-yl)acetyl)-N-(6-bromopyridin-2-yl)-5-methyl-2-azabicyclo[3.1.0]hexane-3-carboxamide]	< 100 nM
Cc1cc(-c2cccnc2C(F)(F)F)cc2c3c(N)ncnc3n(CC(=O)N3[C@H](C(=O)Nc4cccc(Br)n4)C[C@@]4(C)C[C@@H]34)c12 [Compound 358c, (1R,3S,5R)-2-(2-(4-amino-8-methyl-6-(2-(trifluoromethyl)pyridin-3-yl)-9H-pyrimido[4,5-b]indol-9-yl)acetyl)-N-(6-bromopyridin-2-yl)-5-methyl-2-azabicyclo[3.1.0]hexane-3-carboxamide]	100 to 1000 nM
Cc1cc(-c2ccco2)cc2c3c(N)ncnc3n(CC(=O)N3[C@H](C(=O)Nc4cccc(Br)n4)C[C@@]4(C)C[C@@H]34)c12 [Compound 359c, (1R,3S,5R)-2-(2-(4-amino-6-(furan-2-yl)-8-methyl-9H-pyrimido[4,5-b]indol-9-yl)acetyl)-N-(6-bromopyridin-2-yl)-5-methyl-2-azabicyclo[3.1.0]hexane-3-carboxamide]	< 100 nM
Cc1cc(C2CC2)cc2c3c(N)ncnc3n(CC(=O)N3[C@@H]4C[C@@H]4C[C@H]3C(=O)Nc3cccc(Br)n3)c12 [Compound 360c, (1R,3S,5R)-2-(2-(4-amino-6-cyclopropyl-8-methyl-9H-pyrimido[4,5-b]indol-9-yl)acetyl)-N-(6-bromopyridin-2-yl)-2-azabicyclo[3.1.0]hexane-3-carboxamide]	< 100 nM
Cc1cc(C2CC2)cc2c3c(N)ncnc3n(CC(=O)N3[C@H](C(=O)Nc4cccc(Br)n4)C[C@@]4(C)C[C@@H]34)c12 [Compound 361a, (1R,3S,5R)-2-(2-(4-amino-6-cyclopropyl-8-methyl-9H-pyrimido[4,5-b]indol-9-yl)acetyl)-N-(6-bromopyridin-2-yl)-5-methyl-2-azabicyclo[3.1.0]hexane-3-carboxamide]	< 100 nM
